The record followed here is ChEMBL document CHEMBL5038606 (J Med Chem, 2022).

Some results are limits rather than exact numbers.

For series [1], the target named is Coagulation factor XI (Homo sapiens, UniProt P03951). The series can be described thus: Binding affinity to human coagulation factor 11a using L-Pyroglutamyl-L-prolyl-L-arginine p-Nitroaniline as substrate assessed as inhibition constant measured upto 120 mins by spectrophotometric analysis.
The nature of series [2]: Metabolic stability in human liver microsomes assessed as half life. It is filed as ADME, Microsome. For orientation: Microsomes from liver hold many membrane-bound enzymes, among them those of drug oxidation.
A short description of series [3]: Oral bioavailability in Sprague-Dawley rat at 1.06 mg/kg. It is filed as ADME, organism-based. As to conditions: in vivo.
A short description of series [4]: Clearance in Sprague-Dawley rat at 1.06 mg/kg, po or 0.53 mg/kg, iv. It is filed as ADME, organism-based. As to conditions: in vivo.
A short description of series [5]: AUC in Sprague-Dawley rat at 1.06 mg/kg, po. Type of series: ADME, organism-based. Further details: dose 1.06 mg/kg. As to conditions: in vivo.
The nature of series [6]: Volume of distribution at steady state in Sprague-Dawley rat at 1.06 mg/kg, po or 0.53 mg/kg, iv. Type of series: ADME, organism-based. As to conditions: in vivo, read-out: Vdss.
The nature of series [7]: Half life in Sprague-Dawley rat at 1.06 mg/kg, po or 0.53 mg/kg, iv. It is filed as ADME, organism-based. Conditions: in vivo.
Series [8] deals with Plasma. The series can be described thus: Anticoagulant activity in human plasma assessed as activated partial thromboplastin time. It is filed as functional.
Series [9] can be described thus: Metabolic stability in Sprague-Dawley rat liver microsomes assessed as half life. It is filed as ADME, Microsome. Further details: dose or concentration left out as unconfirmed.
Series [10] can be described thus: Protein binding in Sprague-Dawley rat plasma assessed as bound fraction. Details: dose or concentration left out as unconfirmed. Type of series: ADME, cell-free.

Sequence of Coagulation factor XI (P03951 19-387 limits assumed): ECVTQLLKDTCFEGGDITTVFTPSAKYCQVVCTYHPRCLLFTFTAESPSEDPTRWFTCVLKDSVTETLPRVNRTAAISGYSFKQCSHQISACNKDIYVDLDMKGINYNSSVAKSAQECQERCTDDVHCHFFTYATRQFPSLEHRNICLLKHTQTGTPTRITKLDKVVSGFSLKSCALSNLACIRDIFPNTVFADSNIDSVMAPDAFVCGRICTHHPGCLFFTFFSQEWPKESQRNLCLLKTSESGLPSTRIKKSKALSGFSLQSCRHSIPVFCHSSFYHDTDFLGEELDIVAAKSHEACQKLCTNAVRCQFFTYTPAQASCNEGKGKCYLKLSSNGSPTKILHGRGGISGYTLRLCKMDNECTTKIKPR
Sequence of Coagulation factor XI (P03951 388-625 limits assumed): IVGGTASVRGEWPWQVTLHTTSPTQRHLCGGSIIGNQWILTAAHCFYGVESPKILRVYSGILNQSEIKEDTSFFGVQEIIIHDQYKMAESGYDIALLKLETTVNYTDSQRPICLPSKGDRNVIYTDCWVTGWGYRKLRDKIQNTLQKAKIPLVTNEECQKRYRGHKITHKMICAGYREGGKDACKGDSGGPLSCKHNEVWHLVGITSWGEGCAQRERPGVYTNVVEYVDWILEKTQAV

As for `C[C@@H]1CCC[C@H](N2CCC(c3c(F)ccc(Cl)c3F)=CC2=O)c2cc(ccn2)-c2nn(C)cc2NC1=O`, the Ki in series [1] stood at 171 nM.

With `C[C@@H]1CCC[C@H](N2CCC(c3cc(Cl)ccc3-n3cc(Cl)nn3)=CC2=O)c2cc(ccn2)-c2c(cnn2C(F)F)NC1=O`, the half-life in [2] was above 2 h; in series [7] it was 1.2 h; in series [9], above 2 h. The compound also returned a bioavailability in series [3] of 18%. In series [4], the clearance was determined as 17 mL/min/kg. For the same compound, in series [1], the Ki worked out at 0.07 nM. This compound had an area under the curve (AUC) in series [5] of 0.3 µM·h. The Vd in series [6] worked out at 1.4 L/kg. Moreover, the EC1.5 in [8] worked out at 0.39 µM. Further, in [10], the fraction unbound is 0.06.

In the case of `C[C@@H]1CCC[C@H](N2CCC(c3cc(Cl)ccc3-n3cc(Cl)nn3)=CC2=O)c2cc(ccn2)-c2c(cnn2C)NC1=O`, the half-life in [2] is 1.08 h. The EC1.5 in series [8] was determined as 0.3 µM.

With `C[C@@H]1CCC[C@H](N2CCC(c3cc(Cl)ccc3-n3ccnn3)=CC2=O)c2cc(ccn2)-c2c(cnn2C2CC2)NC1=O`, the half-life in [2] was determined as 0.0833 h. Besides, the Ki in series [1] came to 1.1 nM. Further, the EC1.5 in [8] came out at 0.49 µM.

`C[C@@H]1CCC[C@H](N2CCC(c3c(F)ccc(Cl)c3F)=CC2=O)c2cc(ccn2)-c2[nH]ncc2NC1=O`: the Ki in series [1] stood at 548 nM.

In the case of `C[C@@H]1CCC[C@H](N2CCC(c3cc(Cl)ccc3-n3ccnn3)=CC2=O)c2cc(ccn2)-c2c(cnn2C2CCC2)NC1=O`, the half-life in series [2] amounted to 0.1 h. Also, the EC1.5 in series [8] was found to be 3.04 µM.

Take `C[C@@H]1CCC[C@H](N2CCC(c3cc(Cl)ccc3-n3cccn3)=CC2=O)c2cc(ccn2)-c2c(cnn2C)NC1=O`: the Ki in series [1] came to 11 nM. The EC1.5 in series [8] was determined as 8.9 µM.

As to `C[C@@H]1CCC[C@H](N2CCC(c3cc(Cl)ccc3-n3ccnn3)=CC2=O)c2cc(ccn2)-c2c(cnn2CC(F)F)NC1=O`, in series [2], the half-life is 1.27 h. Also, the Ki in [1] turned out to be 11 nM. Moreover, in [8], the EC1.5 turned out to be 1.54 µM.

Take `CCn1ncc2c1-c1ccnc(c1)[C@@H](N1CCC(c3cc(Cl)ccc3-n3ccnn3)=CC1=O)CCC[C@@H](C)C(=O)N2`: the half-life in [2] worked out at 0.167 h. Further, the Ki in series [1] is 1.3 nM. Further, the EC1.5 in series [8] is 0.48 µM.

Broadly, the Ki is a dissociation constant, usually derived from enzyme kinetics or from competition with a known ligand. The term half-life denotes the time needed for the level to fall by half in the phase considered. Usually bioavailability stands for dose-corrected exposure relative to a reference, in per cent. A word on the AUC: it is concentration integrated over time. Broadly, the fraction unbound is free concentration divided by total concentration.
